Measurements reported in patent US20230085307A1, “PYRIDAZINONE COMPOUND AND HERBICIDE” (NISSAN CHEMICAL CORPORATION, priority 2019, published 2023).

Key:
chickweed = assay: Test Example 4: herbicidal effect by soil treatment (Table 19, symbol P); assay type: in vivo, common chickweed (Stellaria media); details: for P: chickweed, herbicidal effect rating: AAH 320 g/ha
In short: (§1)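 Soil-surface application: an emulsion agent diluted with water to the predetermined dose is sprayed uniformly over seeds lying under roughly 1.5 cm of sterilized diluvial soil. Boxes stay in a greenhouse at 25° C. to 30° C. Three weeks later, each species is graded on previously defined criteria.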

southern crabgrass = assay: Test Example 5: herbicidal effect by foliage application, plastic box (Table 20, symbol F); assay type: in vivo, southern crabgrass (Digitaria ciliaris); details: foliage application; for effect on southern crabgrass (F): 3 weeks after application
In short: (§2)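 Sow seeds spot-wise in sterilized diluvial soil; cover with ~1.5 cm soil. Grow 14 days in greenhouse, 25° C. to 30° C. Spray foliage with emulsion diluted to predetermined amount. Rate effect after 3 weeks.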

wild oat = assay: Test Example 5: herbicidal effect by foliage application, plastic box (Table 20, symbol I); assay type: in vivo, wild oat (Avena fatua); details: foliage application; for effect on wild oat (I): 3 weeks after application
In short: as §2

late watergrass = assay: Test Example 1: herbicidal activity, application before weed generation under submerged conditions (Table 16, symbol A); assay type: in vivo, late watergrass (Echinochloa oryzicola); details: 320 g/ha applied herbicide
In short: (§3)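 Alluvial soil was flooded to 4 cm depth, weed seeds were sown mixed and 2.5-leaf rice seedlings were transplanted. On sowing day, the compound's emulsion, diluted in water to a set dose, was applied to the water surface. Plants grew at 25–30 °C and were scored 0–5 after three weeks.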

oval-leafed pondweed = assay: Test Example 1: herbicidal activity, application before weed generation under submerged conditions (Table 16, symbol C); assay type: in vivo, oval-leafed pondweed (Monochoria vaginalis); details: 320 g/ha applied herbicide
In short: as §3

barnyard grass [1] = assay: Test Example 5: herbicidal effect by foliage application, plastic box (Table 20, symbol H); assay type: in vivo, barnyard grass (Echinochloa crus-galli); details: foliage application; for effect on barnyard grass (H): 3 weeks after application
In short: as §2

barnyard grass [2] = assay: Test Example 3: herbicidal effect by foliage application, Wagner pot (Table 18, symbol H); assay type: in vivo, barnyard grass (Echinochloa crus-galli); details: for herbicidal effect on H (barnyard grass), rating 0-5: 320 g/ha
In short: (§4)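 Plants were sown in alluvial soil held under 0.1–0.5 cm standing water and grown 14 days in a greenhouse at 25–30 °C. An emulsifiable formulation, water-diluted to the set dose, was then sprayed onto the foliage, and effects were scored three weeks later using previously defined criteria.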

blackgrass = assay: Test Example 5: herbicidal effect by foliage application, plastic box (Table 20, symbol J); assay type: in vivo, blackgrass (Alopecurus myosuroides); details: foliage application; for effect on blackgrass (J): 3 weeks after application
In short: as §2

green foxtail = assay: Test Example 4: herbicidal effect by soil treatment (Table 19, symbol G); assay type: in vivo, green foxtail (Setaria viridis); details: for G: green foxtail, herbicidal effect rating: AAH 320 g/ha
In short: as §1

barnyard grass [3] = assay: Test Example 4: herbicidal effect by soil treatment (Table 19, symbol H); assay type: in vivo, barnyard grass (Echinochloa crus-galli)
In short: as §1

Japanese bulrush = assay: Test Example 2: herbicidal activity, application during weed generation under submerged conditions (Table 17, symbol B); assay type: in vivo, Japanese bulrush (Schoenoplectus juncoides); details: AAH 320 g/ha; application during weed generation, submerged conditions
In short: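 3-wk visual-criteria score after one water-surface dose. Emulsion formulation, water-diluted to set rate; applied at 1–2 leaf stage; alluvial soil, 4 cm standing water; seeds co-sown; greenhouse 25–30° C.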

redroot pigweed = assay: Test Example 4: herbicidal effect by soil treatment (Table 19, symbol N); assay type: in vivo, redroot pigweed (Amaranthus retroflexus); details: for N: redroot pigweed, herbicidal effect rating: AAH 320 g/ha
In short: as §1

persian speedwell [4] = assay: Test Example 5: herbicidal effect by foliage application, plastic box (Table 20, symbol R); assay type: in vivo, Persian speedwell (Veronica persica); details: foliage application; for effect on persian speedwell (R): 3 weeks after application
In short: as §2

rice flat sedge = assay: Test Example 3: herbicidal effect by foliage application, Wagner pot (Table 18, symbol E); assay type: in vivo, rice flat sedge (Cyperus iria); details: for herbicidal effect on E (rice flat sedge), rating 0-5: 320 g/ha
In short: as §4

velvetleaf = assay: Test Example 4: herbicidal effect by soil treatment (Table 19, symbol M); assay type: in vivo, velvetleaf (Abutilon theophrasti); details: for M: velvetleaf, herbicidal effect rating: AAH 320 g/ha
In short: as §1

persian speedwell [5] = assay: Test Example 4: herbicidal effect by soil treatment (Table 19, symbol R); assay type: in vivo, Persian speedwell (Veronica persica)
In short: as §1

[6] = amount of applied herbicide 320 g/ha
[7] = 320 g/ha, three weeks after application
[8] = AAH 320 g/ha, three weeks after application
[9] = AAH 320 g/ha, evaluated three weeks after application

Structure (SMILES) | P: chickweed, herbicidal effect rating (chickweed) | effect on southern crabgrass (F) (southern crabgrass; 320 g/ha) | effect on wild oat (I) (wild oat; 320 g/ha) | Herbicidal effect on A: late watergrass (grade 0-5) (late watergrass) | Herbicidal effect on C: oval-leafed pondweed (grade 0-5) (oval-leafed pondweed) | effect on barnyard grass (H) (barnyard grass [1]; 320 g/ha) | herbicidal effect on H (barnyard grass), rating 0-5 (barnyard grass [2]) | effect on blackgrass (J) (blackgrass; 320 g/ha) | G: green foxtail, herbicidal effect rating (green foxtail) | herbicidal effect rating, B: Japanese bulrush (Japanese bulrush) | N: redroot pigweed, herbicidal effect rating (redroot pigweed) | effect on persian speedwell (R) (persian speedwell [4]; 320 g/ha) | herbicidal effect on E (rice flat sedge), rating 0-5 (rice flat sedge) | M: velvetleaf, herbicidal effect rating (velvetleaf) | herbicidal effect rating, P: chickweed (chickweed; [6]) | herbicidal effect rating, G: green foxtail (green foxtail; [6]) | herbicidal effect rating, H: barnyard grass (barnyard grass [3]; [6]) | herbicidal effect rating, N: redroot pigweed (redroot pigweed; [6]) | also measured
C=CCC(C)Oc1ccc(-c2sc3ccccc3c2-c2c(O)c(C)nn(C)c2=O)cc1 (racemic) [1-213] | 3 (Herbicidal rate of 40% or more and less than 70%) | 5 (Herbicidal rate of 90% or more (almost completely withered)) | 3 (Herbicidal rate of 40% or more and less than 70%) | 5 (Herbicidal rate of 90% or more (almost completely withered)) | 5 (Herbicidal rate of 90% or more (almost completely withered)) | 5 (Herbicidal rate of 90% or more (almost completely withered)) | 5 (Herbicidal rate of 90% or more (almost completely withered)) | 5 (Herbicidal rate of 90% or more (almost completely withered)) | 0 (Herbicidal rate of 5% or less (almost no effect)) | 3 (Herbicidal rate of 40% or more and less than 70%) | 0 (Herbicidal rate of 5% or less (almost no effect)) | 5 (Herbicidal rate of 90% or more (almost completely withered)) | 3 (Herbicidal rate of 40% or more and less than 70%) | 0 (Herbicidal rate of 5% or less (almost no effect)) |  |  |  |  | H: barnyard grass, herbicidal effect rating (barnyard grass [3]; AAH 320 g/ha): 0 (Herbicidal rate of 5% or less (almost no effect))
C#CC(C)Oc1ccc(-c2sc3ccccc3c2-c2c(O)c(C)nn(C)c2=O)cc1 (racemic) [1-217] | 5 (Herbicidal rate of 90% or more (almost completely withered)) | 4 (Herbicidal rate of 70% or more and less than 90%) | 3 (Herbicidal rate of 40% or more and less than 70%) | 4 (Herbicidal rate of 70% or more and less than 90%) | 3 (Herbicidal rate of 40% or more and less than 70%) | 5 (Herbicidal rate of 90% or more (almost completely withered)) | 5 (Herbicidal rate of 90% or more (almost completely withered)) | 4 (Herbicidal rate of 70% or more and less than 90%) | 3 (Herbicidal rate of 40% or more and less than 70%) | 3 (Herbicidal rate of 40% or more and less than 70%) | 4 (Herbicidal rate of 70% or more and less than 90%) | 5 (Herbicidal rate of 90% or more (almost completely withered)) | 3 (Herbicidal rate of 40% or more and less than 70%) | 0 (Herbicidal rate of 5% or less (almost no effect)) |  |  |  |  | R: persian speedwell, herbicidal effect rating (persian speedwell [5]; AAH 320 g/ha): 5 (Herbicidal rate of 90% or more (almost completely withered))
CC(=O)c1ccc(-c2sc3ccccc3c2-c2c(O)c(C)nn(C)c2=O)cc1 [1-041] |  |  |  | 3 (Herbicidal rate of 40% or more and less than 70%) | 4 (Herbicidal rate of 70% or more and less than 90%) |  | 1 (Herbicidal rate of 5% or more and less than 20%) |  |  | 3 (Herbicidal rate of 40% or more and less than 70%) |  |  | 5 (Herbicidal rate of 90% or more (almost completely withered)) |  | 0 (Herbicidal rate of 5% or less (almost no effect)) | 3 (Herbicidal rate of 40% or more and less than 70%) | 0 (Herbicidal rate of 5% or less (almost no effect)) | 4 (Herbicidal rate of 70% or more and less than 90%) | herbicidal effect grade, F: southern crabgrass (southern crabgrass; [7]): 4 (Herbicidal rate of 70% or more and less than 90%); herbicidal effect grade, I: wild oat (wild oat; [7]): 1 (Herbicidal rate of 5% or more and less than 20%); herbicidal effect grade, H: barnyard grass (barnyard grass [1]; [7]): 0 (Herbicidal rate of 5% or less (almost no effect)); herbicidal effect grade, J: blackgrass (blackgrass; [7]): 0 (Herbicidal rate of 5% or less (almost no effect)); herbicidal effect grade, R: persian speedwell (persian speedwell [4]; [7]): 5 (Herbicidal rate of 90% or more (almost completely withered)); herbicidal effect rating, M: velvetleaf (velvetleaf; [6]): 3 (Herbicidal rate of 40% or more and less than 70%)
Cc1nn(C)c(=O)c(-c2c(-c3cnc4ccccc4c3)sc3ccccc23)c1O [1-108] |  |  |  | 3 (Herbicidal rate of 40% or more and less than 70%) | 0 (Herbicidal rate of 5% or less (almost no effect)) |  | 0 (Herbicidal rate of 5% or less (almost no effect)) |  |  | 2 (Herbicidal rate of 20% or more and less than 40%) |  |  | 5 (Herbicidal rate of 90% or more (almost completely withered)) |  | 0 (Herbicidal rate of 5% or less (almost no effect)) | 0 (Herbicidal rate of 5% or less (almost no effect)) | 0 (Herbicidal rate of 5% or less (almost no effect)) | 0 (Herbicidal rate of 5% or less (almost no effect)) | F: southern crabgrass, herbicidal effect (southern crabgrass; [8]): 0 (Herbicidal rate of 5% or less (almost no effect)); I: wild oat, herbicidal effect (wild oat; [8]): 0 (Herbicidal rate of 5% or less (almost no effect)); H: barnyard grass, herbicidal effect (barnyard grass [1]; [8]): 0 (Herbicidal rate of 5% or less (almost no effect)); herbicidal effect rating, R: persian speedwell (persian speedwell [5]; [6]): 0 (Herbicidal rate of 5% or less (almost no effect)); J: blackgrass, herbicidal effect (blackgrass; [8]): 0 (Herbicidal rate of 5% or less (almost no effect)); R: persian speedwell, herbicidal effect (persian speedwell [4]; [8]): 0 (Herbicidal rate of 5% or less (almost no effect))
Cc1nn(C)c(=O)c(-c2c(-c3ccc(O)cc3)sc3ccc(F)cc23)c1O [2-337] |  |  |  | 4 (Herbicidal rate of 70% or more and less than 90%) | 3 (Herbicidal rate of 40% or more and less than 70%) |  |  |  |  | 2 (Herbicidal rate of 20% or more and less than 40%) |  |  |  |  |  |  |  |  | herbicidal effect on P: chickweed (chickweed; [6]): 3 (Herbicidal rate of 40% or more and less than 70%); F: southern crabgrass, herbicidal effect (criteria 0-5) (southern crabgrass; [9]): 0 (Herbicidal rate of 5% or less (almost no effect)); I: wild oat, herbicidal effect (criteria 0-5) (wild oat; [9]): 0 (Herbicidal rate of 5% or less (almost no effect)); H: barnyard grass, herbicidal effect (criteria 0-5) (barnyard grass [1]; [9]): 0 (Herbicidal rate of 5% or less (almost no effect)); herbicidal effect on H: barnyard grass (barnyard grass [2]; [6]): 3 (Herbicidal rate of 40% or more and less than 70%); J: blackgrass, herbicidal effect (criteria 0-5) (blackgrass; [9]): 0 (Herbicidal rate of 5% or less (almost no effect)); herbicidal effect on G: green foxtail (green foxtail; [6]): 0 (Herbicidal rate of 5% or less (almost no effect)); herbicidal effect on H: barnyard grass (barnyard grass [3]; [6]): 0 (Herbicidal rate of 5% or less (almost no effect)); herbicidal effect on N: redroot pigweed (redroot pigweed; [6]): 0 (Herbicidal rate of 5% or less (almost no effect)); R: persian speedwell, herbicidal effect (criteria 0-5) (persian speedwell [4]; [9]): 5 (Herbicidal rate of 90% or more (almost completely withered)); herbicidal effect on E: rice flat sedge (rice flat sedge; [6]): 3 (Herbicidal rate of 40% or more and less than 70%); herbicidal effect on M: velvetleaf (velvetleaf; [6]): 0 (Herbicidal rate of 5% or less (almost no effect))
